Experimental data reported in article PMC7980221 (Molecular Cell, 2021).
Like-named read-outs stand apart in the source and are kept apart here. Each block holds one molecule with its values, some of them ahead of it.

Assays:
[1] = molecular target: NavMs F208L mutant (NavMsL) (Magnetococcus marinus) (UniProt A0L5S6); assay: crystal structure
NavMs [2] = molecular target: T1, NavMs (Magnetococcus marinus, UniProt A0L5S6); assay: cell-based
hNav1.2 = hNav1.2 (Homo sapiens, UniProt Q99250); assay: Whole-cell patch-clamp INa inhibition, hNav1.2 in HEK293 cells; format: cell-based
ER = conditions: cited from earlier work
[3] = molecular target: NavMs D220E mutant channel (Magnetococcus marinus, UniProt A0L5S6, D220E); assay: cell-based; format: cell-based
[4] = molecular target: NavMs E227D mutant channel (Magnetococcus marinus, UniProt A0L5S6, E227D); assay: cell-based
[5] = tested on: endogenous sodium currents of MDA-MB-231 cells (nNav1.5, Nav1.7); assay: Voltage clamp of endogenous sodium currents in MDA-MB-231 cells; format: cell-based; conditions: Homo sapiens, MDA-MB-231, read-out: Potency of sodium current inhibition (IC50), MDA-MD-231 cells
NavMs [6] = molecular target: T1, NavMs; assay: Mechanism and kinetics of NavMs INa inhibition; format: cell-based
[7] = cited from earlier work

Sequence of hNav1.2 (Q99250 whole entry): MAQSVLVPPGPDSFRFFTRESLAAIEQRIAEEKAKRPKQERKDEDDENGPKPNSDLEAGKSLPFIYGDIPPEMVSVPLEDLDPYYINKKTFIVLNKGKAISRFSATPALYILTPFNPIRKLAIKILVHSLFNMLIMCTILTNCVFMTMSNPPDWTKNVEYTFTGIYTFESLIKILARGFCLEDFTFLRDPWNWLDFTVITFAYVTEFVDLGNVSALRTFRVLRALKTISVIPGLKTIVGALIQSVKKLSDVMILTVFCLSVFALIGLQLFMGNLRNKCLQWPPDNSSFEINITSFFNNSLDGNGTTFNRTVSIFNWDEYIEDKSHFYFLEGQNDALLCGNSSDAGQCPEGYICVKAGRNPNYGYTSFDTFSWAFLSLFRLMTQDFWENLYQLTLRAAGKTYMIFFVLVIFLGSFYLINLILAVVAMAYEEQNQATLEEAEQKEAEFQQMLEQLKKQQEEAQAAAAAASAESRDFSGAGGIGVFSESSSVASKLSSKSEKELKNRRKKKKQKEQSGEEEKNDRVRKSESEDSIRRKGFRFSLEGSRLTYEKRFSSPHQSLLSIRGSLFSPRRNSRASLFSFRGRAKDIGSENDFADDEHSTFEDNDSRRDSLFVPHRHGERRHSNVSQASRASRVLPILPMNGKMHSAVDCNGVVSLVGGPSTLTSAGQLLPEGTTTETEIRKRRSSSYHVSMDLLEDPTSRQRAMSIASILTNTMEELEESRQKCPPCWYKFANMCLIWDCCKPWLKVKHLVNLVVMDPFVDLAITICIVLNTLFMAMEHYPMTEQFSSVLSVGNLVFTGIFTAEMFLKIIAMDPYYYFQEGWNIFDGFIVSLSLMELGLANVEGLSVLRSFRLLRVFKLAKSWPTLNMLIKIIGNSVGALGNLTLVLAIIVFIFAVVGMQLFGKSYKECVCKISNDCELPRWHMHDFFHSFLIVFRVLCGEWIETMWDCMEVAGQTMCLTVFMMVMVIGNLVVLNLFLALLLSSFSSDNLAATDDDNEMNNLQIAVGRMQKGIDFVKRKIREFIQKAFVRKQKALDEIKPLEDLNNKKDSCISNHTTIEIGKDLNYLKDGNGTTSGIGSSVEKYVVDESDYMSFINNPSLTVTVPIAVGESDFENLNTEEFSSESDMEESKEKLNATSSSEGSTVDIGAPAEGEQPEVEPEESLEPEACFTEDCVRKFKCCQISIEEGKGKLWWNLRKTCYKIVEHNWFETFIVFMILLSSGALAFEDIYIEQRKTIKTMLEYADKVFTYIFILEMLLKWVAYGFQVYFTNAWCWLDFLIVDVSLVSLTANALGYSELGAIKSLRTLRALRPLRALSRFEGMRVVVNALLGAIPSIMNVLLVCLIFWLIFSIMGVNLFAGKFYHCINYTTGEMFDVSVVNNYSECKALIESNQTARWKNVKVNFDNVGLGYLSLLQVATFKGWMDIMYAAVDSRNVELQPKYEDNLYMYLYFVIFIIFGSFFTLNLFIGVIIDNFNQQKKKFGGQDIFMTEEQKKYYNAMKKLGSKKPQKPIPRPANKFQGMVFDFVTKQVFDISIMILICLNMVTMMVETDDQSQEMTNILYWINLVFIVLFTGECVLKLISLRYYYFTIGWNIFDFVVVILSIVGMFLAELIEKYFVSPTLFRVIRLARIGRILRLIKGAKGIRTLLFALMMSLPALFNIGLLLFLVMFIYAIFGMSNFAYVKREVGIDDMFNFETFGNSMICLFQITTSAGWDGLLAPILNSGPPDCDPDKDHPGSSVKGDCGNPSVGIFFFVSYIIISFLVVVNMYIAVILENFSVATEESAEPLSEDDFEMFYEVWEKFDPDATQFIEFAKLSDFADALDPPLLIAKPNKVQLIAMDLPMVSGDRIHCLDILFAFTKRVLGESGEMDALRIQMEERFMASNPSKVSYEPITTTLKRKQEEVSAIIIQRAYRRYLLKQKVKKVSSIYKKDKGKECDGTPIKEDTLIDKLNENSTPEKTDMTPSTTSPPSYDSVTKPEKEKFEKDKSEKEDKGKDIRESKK

Molecule: CC/C(=C(/c1ccc(O)cc1)c1ccc(OCCN(C)C)cc1)c1ccccc1.Cl [E-4OH-Tam, E-4-Hydroxytamoxifen hydrochloride]
Average slope of the Hill fit, NavMs, HEK cells (NavMs [2]; value in parentheses, error SD): 1.15 ± 0.1 | Average slope of the Hill fit, NaV1.2, HEK cells (hNav1.2; value in parentheses, error SD): 0.94 ± 0.1

Molecule: CC/C(=C(\c1ccc(O)cc1)c1ccc(OCCN(C)C)cc1)c1ccccc1 [4OH-Tam, 4-hydroxytamoxifen]
IC50 (NavMs [2]): 297 ± 75 nM | Average slope of the Hill fit, NavMs, HEK cells (NavMs [2]; value in parentheses, error SD): 1.14 ± 0.1 | IC50 [3]: 3600 ± 140 nM | Loss in free energy of binding (ΔG°) [3]: 1.5 kcal/mol | Average slope of the Hill fit, D220E, HEK cells ([3]; value in parentheses, error SD): 1.17 ± 0.1 | IC50 [4]: 2800 ± 160 nM | Average slope of the Hill fit, E227D, HEK cells ([4]; value in parentheses, error SD): 1.13 ± 0.1 | IC50 (hNav1.2): 2100 ± 140 nM | Average slope of the Hill fit, NaV1.2, HEK cells (hNav1.2; value in parentheses, error SD): 0.96 ± 0.1 | IC50 [5]: 890 nM | Delay of rate of recovery from inactivation (τrec) following drug treatment (NavMs [6]): ~10 fold | INa inhibition with 7 ms vs 150 ms depolarization trains, times less (NavMs [6]): 3.4 times | Kinetics of INa inhibition (τon), times slower than cadmium (NavMs [6]): 16 times | Shift of voltage dependence of activation and inactivation (NavMs [6]): no significant shifts in either parameter | Potency in vivo as an anti-estrogen relative to tamoxifen [7]: 30- to 100 fold

Molecule: CC/C(=C(\c1ccc(O)cc1)c1ccc(OCCN(C)C)cc1)c1ccccc1.Cl [Z-4OH-Tam, Z-4-Hydroxytamoxifen hydrochloride]
Average slope of the Hill fit, NavMs, HEK cells (NavMs [2]; value in parentheses, error SD): 1.05 ± 0.1 | Average slope of the Hill fit, NaV1.2, HEK cells (hNav1.2; value in parentheses, error SD): 0.95 ± 0.1

Now from value to molecule, other results behind:

stoichiometry N [1]: 4
Molecule: NavMs F208L mutant (NavMsL) (from UniProt A0L5S6 1-274) (natural protein)

Average slope of the Hill fit, NavMs, HEK cells (NavMs [2]): 1.1 ± 0.16 μM (1.11 ± 0.1) | IC50 (NavMs [2]; read-out: Potency of sodium current inhibition (IC50), NavMs, HEK cells): 1100 nM | Average slope of the Hill fit, NaV1.2, HEK cells (hNav1.2): 3.2 ± 0.12 μM (0.96 ± 0.1) | IC50 (hNav1.2; read-out: Potency of sodium current inhibition (IC50), NaV1.2, HEK cells): 3200 nM
Molecule: CC/C(=C(\c1ccccc1)c1ccc(OCCNC)cc1)c1ccccc1 [NM-Tam, N-desmethyltamoxifen]
Affinity for ER, times lower than that of tamoxifen (ER): ~100 times

IC50 (NavMs [2]): 328 ± 89 nM | Average slope of the Hill fit, NavMs, HEK cells (NavMs [2]; value in parentheses, error SD): 1.09 ± 0.1 | IC50 (hNav1.2): 3100 ± 130 nM | Average slope of the Hill fit, NaV1.2, HEK cells (hNav1.2; value in parentheses, error SD): 0.97 ± 0.1
Molecule: CC/C(=C(\c1ccc(O)cc1)c1ccc(OCCNC)cc1)c1ccccc1 [Endoxifen]

Average slope of the Hill fit, NaV1.2, HEK cells (hNav1.2): 2.4 ± 0.11 μM (1.05 ± 0.1) | IC50 (hNav1.2): 2400 nM
Molecule: CC/C(=C(\c1ccccc1)c1ccc(OCCN(C)C)cc1)c1ccccc1 [Tamoxifen]
